The values that follow come from ChEMBL document CHEMBL4765282, “Design, synthesis and biological evaluation of 1H-pyrazolo [3,4-d]pyrimidine derivatives as PAK1 inhibitors that trigger apoptosis, ER stress and anti-migration effect in MDA-MB-231 cells” (Eur J Med Chem, 2020).

In test [1] the target is Serine/threonine-protein kinase PAK 2 (Homo sapiens, UniProt Q13177). Briefly: Inhibition of PAK2 (unknown origin) […] measured after 40 mins by ADP-glo kinase assay.
Test [2] concerns the target Serine/threonine-protein kinase PAK 1 (Homo sapiens, UniProt Q13153). Briefly: Inhibition of PAK1 in human MDA-MB-231 cells assessed as reduction in MEK1/2 phosphorylation at ser217/221 residues at 10 to 40 uM measured after 24 hrs by Western blot analysis. It is filed as cell-based. To be noted: dose 10-40 µM. On the technique in general: A western blot detects proteins with antibodies after separation by electrophoresis.

Each structure is given as a SMILES string. Calls of active or inactive are those of the source. The calls are words filed in the database; no cut-off is given here.

Serine/threonine-protein kinase PAK 1, sequence (Q13153 whole entry): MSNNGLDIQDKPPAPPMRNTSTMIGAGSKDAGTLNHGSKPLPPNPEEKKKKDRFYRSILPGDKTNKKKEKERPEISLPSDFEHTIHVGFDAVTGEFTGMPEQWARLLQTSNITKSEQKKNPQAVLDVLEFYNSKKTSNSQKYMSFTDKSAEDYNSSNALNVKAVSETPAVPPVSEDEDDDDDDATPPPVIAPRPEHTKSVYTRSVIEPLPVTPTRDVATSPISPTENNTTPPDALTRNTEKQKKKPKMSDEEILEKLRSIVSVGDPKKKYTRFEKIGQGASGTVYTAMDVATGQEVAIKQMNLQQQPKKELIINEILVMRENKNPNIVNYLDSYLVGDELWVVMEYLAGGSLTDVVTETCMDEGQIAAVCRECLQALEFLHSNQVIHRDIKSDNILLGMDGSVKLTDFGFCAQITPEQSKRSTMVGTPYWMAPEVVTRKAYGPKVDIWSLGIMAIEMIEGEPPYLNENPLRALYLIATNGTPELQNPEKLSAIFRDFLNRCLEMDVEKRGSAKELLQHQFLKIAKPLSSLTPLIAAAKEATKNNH
Serine/threonine-protein kinase PAK 2, sequence (Q13177 whole entry): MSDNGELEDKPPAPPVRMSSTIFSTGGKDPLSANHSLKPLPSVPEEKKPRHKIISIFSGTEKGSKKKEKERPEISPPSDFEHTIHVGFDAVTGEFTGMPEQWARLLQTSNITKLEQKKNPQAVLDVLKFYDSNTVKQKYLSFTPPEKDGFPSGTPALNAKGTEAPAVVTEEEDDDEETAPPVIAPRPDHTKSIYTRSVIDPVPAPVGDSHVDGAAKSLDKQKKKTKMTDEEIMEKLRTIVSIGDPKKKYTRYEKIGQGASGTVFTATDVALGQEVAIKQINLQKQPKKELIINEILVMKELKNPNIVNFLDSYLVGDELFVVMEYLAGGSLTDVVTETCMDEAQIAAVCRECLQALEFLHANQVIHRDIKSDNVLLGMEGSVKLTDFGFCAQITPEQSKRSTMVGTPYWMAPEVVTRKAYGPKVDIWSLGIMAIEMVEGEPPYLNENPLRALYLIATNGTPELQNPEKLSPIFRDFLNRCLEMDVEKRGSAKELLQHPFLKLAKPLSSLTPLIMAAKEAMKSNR

Molecule `O=C(Nc1cc(C(F)(F)F)cc(C(F)(F)F)c1)NC1CCN(c2ncnc3[nH]ncc23)CC1` displayed a 50% inhibitory concentration (IC50) in test [1] of 1040 nM. In addition, in test [2], the inhibition result was “Active”.

Broadly, the IC50 is the concentration that inhibits the measured activity by half. Low values mean greater potency, high ones weaker potency.
